The values below come from article PMC7123434, “Development of High-Throughput Fluorescent-Based Screens to Accelerate Discovery of P2X Inhibitors from Animal Venoms” (Journal of Natural Products, 2019).

Common to all, as to type: cell-based
Test [1] addresses T1, hP2X4 (Homo sapiens, UniProt Q99571).
T1 construct: expressed in transfected cells
T1 sequence (Q99571 1-388): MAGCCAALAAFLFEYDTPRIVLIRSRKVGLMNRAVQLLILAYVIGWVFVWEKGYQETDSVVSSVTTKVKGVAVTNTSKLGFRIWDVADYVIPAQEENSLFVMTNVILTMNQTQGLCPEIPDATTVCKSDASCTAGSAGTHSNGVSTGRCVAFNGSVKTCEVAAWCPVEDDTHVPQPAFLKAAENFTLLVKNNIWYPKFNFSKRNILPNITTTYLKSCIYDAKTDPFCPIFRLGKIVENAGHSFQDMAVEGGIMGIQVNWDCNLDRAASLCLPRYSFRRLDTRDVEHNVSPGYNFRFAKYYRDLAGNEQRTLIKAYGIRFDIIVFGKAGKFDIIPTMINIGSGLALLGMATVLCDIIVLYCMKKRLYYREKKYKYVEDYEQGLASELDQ
The test is described as follows: YOPRO-1 dye uptake assay on HEK293-hP2X4 cells. On the procedure: (§1) This method was adapted and further optimized from Patrice et al.[50] One day prior to measurements, HEK293-hP2X4 and HEK293-hP2X7 cells were plated on poly-D-lysine-coated 96-well plates at 2 × 10^4 cells/well. After 24 h, the culture media was aspirated, and 80 μL of YOPRO-1 assay buffer (145 mM NaCl, 5 mM KCl, 0.1 mM CaCl2, 13 mM D-glucose, 10 mM HEPES; pH 7.35) with 2 μM YOPRO-1 was applied. […] The injection volume was 10 μL with a 150 μL pipet height and rate of 4 (∼62 μL/s). The run time was 300 s with a 3.9 s interval, 6 reads/well, and 77 reads in total. Measurement parameters were as follows: bottom reading, excitation wavelength (490 nm), emission wavelength (520 nm).

The next test has as its target T2, hP2X7 (Homo sapiens, UniProt Q99572).
T2 construct: expressed in transfected cells
T2 sequence (Q99572 1-595): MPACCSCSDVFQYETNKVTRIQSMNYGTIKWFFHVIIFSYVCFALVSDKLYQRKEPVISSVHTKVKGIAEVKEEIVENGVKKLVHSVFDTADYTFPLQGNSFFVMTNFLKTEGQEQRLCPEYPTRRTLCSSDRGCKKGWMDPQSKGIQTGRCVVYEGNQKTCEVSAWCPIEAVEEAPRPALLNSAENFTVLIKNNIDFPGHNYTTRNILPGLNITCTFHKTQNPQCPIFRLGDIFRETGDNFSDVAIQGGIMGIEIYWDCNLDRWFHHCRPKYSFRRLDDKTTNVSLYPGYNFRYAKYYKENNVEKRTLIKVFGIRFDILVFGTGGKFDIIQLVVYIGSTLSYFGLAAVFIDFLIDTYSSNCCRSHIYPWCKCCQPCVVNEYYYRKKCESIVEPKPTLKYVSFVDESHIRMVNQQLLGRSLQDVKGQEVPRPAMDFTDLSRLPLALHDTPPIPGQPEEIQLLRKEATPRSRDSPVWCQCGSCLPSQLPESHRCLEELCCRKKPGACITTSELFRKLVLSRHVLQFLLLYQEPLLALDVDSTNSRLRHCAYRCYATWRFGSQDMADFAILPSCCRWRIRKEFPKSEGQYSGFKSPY
Description: YOPRO-1 dye uptake assay on HEK293-hP2X7 cells. The settings on record: used for fitting; Figure S1C: HEK293-hP2X7; read-out: ATP EC50. On the procedure: as §1

Test [2] has as its target T1, hP2X4. The test is described as follows: Fura-2 AM [Ca2+]i assay on 1321N1-hP2X4 cells. The settings on record: used for fitting; Figure S1 A,B: 1321N1-hP2X4 and HEK293-hP2X4; read-out: ATP EC50.
Description: One day prior to measurements, 1321N1-hP2X4 cells were plated onto poly-D-lysine-coated 96-well plates at 2 × 10^4 cells/well. After 24 h, the cells were loaded for 1 h at 37 °C with 2 μM Fura-2 AM in Hank’s Balanced Salt Solution (HBSS, Gibco). The Fura-2 loading buffer dye was removed; then the cells were incubated in 80 μL of Etotal buffer, containing (in mM) 145 NaCl, 5 KCl, 1 MgCl2, 2 CaCl2, 13 D-glucose, 10 HEPES; pH 7.33. […] The injection volume was 10 μL with 150 μL pipette height and rate of 4 (∼62 μL/s). The run time was 300 s with 3.5 s intervals and 3 reads/well. The change in [Ca^2+]i concentration was calculated as the ratio of Fura-2 intensities at 520 emission from excitation at 340 and 380 nm (F ratio).

As to `CC(C)c1cc(Br)c(NC(=O)Nc2cccnc2)c(Br)c1` [BX430], at 10 µM the inhibition against hP2X4 [1] (10 μM, hP2X4, cell line not stated) was 75%. Moreover, the “Normalised Mean” value on hP2X4 [1] (AUC signal normalised to positive control (10 µM ATP) = 1.0, HEK293-hP2X4) is listed as 1.05.

On to `Nc1ncnc2c1ncn2[C@@H]1O[C@H](COP(=O)(O)OP(=O)(O)OP(=O)(O)O)[C@@H](O)[C@H]1O` [ATP], for which the figures for the concentration giving a half-maximal response (EC50) at hP2X7 and on hP2X4 [2] were 300 µM and 1.6 µM, respectively.
